In data set [1] the target is T1, Nitric oxide synthase, inducible (Mus musculus, UniProt P29477).
T1 sequence (P29477 whole entry): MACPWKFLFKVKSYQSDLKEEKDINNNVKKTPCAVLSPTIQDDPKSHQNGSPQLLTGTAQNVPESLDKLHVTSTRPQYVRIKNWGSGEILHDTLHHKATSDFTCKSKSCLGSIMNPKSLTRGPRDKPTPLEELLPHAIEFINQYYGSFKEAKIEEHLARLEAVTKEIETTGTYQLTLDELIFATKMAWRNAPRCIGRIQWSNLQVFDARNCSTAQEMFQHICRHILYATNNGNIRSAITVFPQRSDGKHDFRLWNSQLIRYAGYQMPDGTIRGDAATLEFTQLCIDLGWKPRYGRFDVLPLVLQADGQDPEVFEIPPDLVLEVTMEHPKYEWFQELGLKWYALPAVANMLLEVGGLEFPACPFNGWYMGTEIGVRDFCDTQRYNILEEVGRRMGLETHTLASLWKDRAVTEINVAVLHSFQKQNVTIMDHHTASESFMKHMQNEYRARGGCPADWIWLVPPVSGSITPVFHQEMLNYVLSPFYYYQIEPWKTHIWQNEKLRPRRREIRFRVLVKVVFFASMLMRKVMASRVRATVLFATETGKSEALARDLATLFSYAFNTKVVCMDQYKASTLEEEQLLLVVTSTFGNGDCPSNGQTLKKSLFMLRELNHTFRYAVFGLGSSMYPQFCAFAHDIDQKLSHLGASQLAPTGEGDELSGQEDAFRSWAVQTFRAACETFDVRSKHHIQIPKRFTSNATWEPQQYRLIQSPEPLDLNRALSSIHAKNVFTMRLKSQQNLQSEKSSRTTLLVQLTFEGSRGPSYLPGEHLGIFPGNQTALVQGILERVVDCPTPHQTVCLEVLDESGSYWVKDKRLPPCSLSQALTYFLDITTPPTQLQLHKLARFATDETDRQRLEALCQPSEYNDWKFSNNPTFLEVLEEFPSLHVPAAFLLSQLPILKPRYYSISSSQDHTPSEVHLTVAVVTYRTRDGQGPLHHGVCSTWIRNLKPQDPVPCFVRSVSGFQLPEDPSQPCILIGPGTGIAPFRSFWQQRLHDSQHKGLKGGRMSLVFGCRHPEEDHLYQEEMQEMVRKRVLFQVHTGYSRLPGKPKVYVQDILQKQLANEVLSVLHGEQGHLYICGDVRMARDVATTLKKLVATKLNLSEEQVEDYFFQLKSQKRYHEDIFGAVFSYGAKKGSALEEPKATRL
Description: Inhibition of iNOS in mouse BV2 cells assessed as inhibition of LPS-induced NO production after 20 hrs by Griess reaction. Format: cell-based, BV-2.

The species named for a further data set is Mus musculus. Description: Cytotoxicity against mouse BV2 cells at IC50 by MTT assay. The following applies: bv-2. Format: toxicity, cell-based. On the technique in general: Formazan colour is commonly taken as a measure of viable cells.

This passage reports IC50 and Activity results from ChEMBL document CHEMBL3856242, “Bioactive diterpenoids from Trigonostemon chinensis: Structures, NO inhibitory activities, and interactions with iNOS” (Bioorg Med Chem Lett, 2016).

The structures appear in SMILES notation. Bounds are passed on as bounds.

What is called IC50 is the concentration that inhibits the measured activity by half. As to `CSC(=N)N.O=S(=O)(O)O`, the IC50 in data set [1] came out at 1.8 µM. Further, the Activity entry in the data set filed under Mus musculus is “Non-Toxic”.
In the case of `C=C(C)[C@@]1(OC(C)=O)[C@H](OC(C)=O)[C@@H]2[C@H](OC(C)=O)[C@@]3(C)O[C@@]4([C@@H]3OC(=O)c3ccccc3)[C@@H](OC(C)=O)[C@@H](C)C[C@H]4[C@@]2(O)[C@H](C)[C@@H]1OC(=O)c1ccccc1`, in data set [1], the IC50 stood at 7.5 µM. Besides, the Activity result in the data set filed under Mus musculus was “Non-Toxic”.
In the same order, the values of `Cc1cc2c(cc1O)[C@@]1(C)CC[C@H](O)C(C)(C)[C@@H]1CC2` are 5.9 µM and “Non-Toxic”.
For the compound `C=C(C)[C@@]1(O)[C@@H]2OC3(c4ccccc4)O[C@H]1[C@@H](C)[C@@]1(O3)[C@H]2[C@H](O)[C@@](C)(OC(=O)c2ccccc2)[C@@H](OC(C)=O)[C@@]2(O)[C@H]1C[C@H](C)[C@@H]2O`, the IC50 in data set [1] was more than 30 µM. Besides, the Activity entry in the data set listed under Mus musculus was “Non-Toxic”.
In the same order, the values of `C=C(C)[C@@]1(OC(=O)c2ccccc2)[C@H](OC(C)=O)[C@@H]2[C@H](OC(C)=O)[C@@]3(C)O[C@@]4([C@@H]3OC(=O)c3ccccc3)[C@@H](OC(C)=O)[C@@H](C)C[C@H]4[C@@]2(O)[C@H](C)[C@@H]1OC(C)=O` are 13.4 µM and “Non-Toxic”.
Take `Cc1cc2c(cc1O)C=C1CC[C@H](O)C(C)(C)[C@@H]1CC2`: the IC50 in data set [1] turned out to be 3.8 µM. Besides, the Activity result in the data set filed under Mus musculus is reported as “Non-Toxic”.
In the same order, the values of `C=C(C)[C@@]1(O)[C@@H]2OC3(c4ccccc4)O[C@H]1[C@@H](C)[C@@]1(O3)[C@H]2[C@H](OC(C)=O)[C@@](C)(OC(=O)c2ccccc2)[C@@H](OC(C)=O)[C@@]2(O)[C@H]1C[C@H](C)[C@@H]2O` are 10.2 µM and “Non-Toxic”.
